Columns and labels:
[1] = system: human breast cancer MCF-7 cells; assay: MTT test (cell toxicity test); format: cell-based; settings: for survival rate of cell (%): MCF-7, 4 h exposure then 44 h culture
Description: (§1) (1) MTT test (cell toxicity test)
(§2) 1. formulating a single cell suspension with a medium containing 10% fetal calf serum, and then seeding the suspension into 96-well plates in 1.0×10^5 cells per well. The volume of each well was 150 μL.
(§3) 2. placing the plates into a cell incubator of 37° C. and culturing for 24 h.
(§4) 3. absorbing and discarding the supernatant of the medium in the well, and adding […], fresh medium containing TXT or […], solution containing composition [D-Arg^25]-NPY-ANP-TXT with same concentration of TXT.
(§5) 4. placing into a cell incubator of 37° C. and culturing for 4 h, absorbing and discarding the supernatant of the medium in the well, and then replacing with fresh medium contain no medication or nanoparticle composition, and continuing to culture for 44 h.
(§6) 5. adding 10 μL MTT solution (5 mg/ml, in PBS, pH=7.4) into each well, placing the plates into a cell incubator of 37° C. and continuing to culture for 4 h, terminating the culture, and then absorbing and discarding the supernatant of the medium in the well.
(§7) 6. adding 150 μL DMSO into each well, oscillating for 10 min, so that the crystal was fully thawed.
(§8) 7. selecting 550 nm wavelength, and measuring the light absorbance for each well with enzyme-linked immunosorbent monitor and recording the results.
(§9) The cells used in cell experiments comprised human breast cancer MCF-7 cells, human endometrial tumors HEC-1B-Y5 cells (Purchased from American Type Culture Collection (ATCC) and Sciencell company(USA))

[2] = system: human endometrial tumors HEC-1B-Y5 cells; assay: MTT test (cell toxicity test); format: cell-based; settings: for survival rate of cell (%): HEC-1B-Y5, 4 h exposure then 44 h culture
Description: as §1, §2, §3, §4, §5, §6, §7, §8, §9

`CC(=O)O[C@@]12CO[C@@H]1C[C@H](O)[C@@]1(C)C(=O)[C@H](O)C3=C(C)[C@@H](OC(=O)[C@H](O)[C@@H](NC(=O)OC(C)(C)C)c4ccccc4)C[C@@](O)([C@@H](OC(=O)c4ccccc4)[C@H]21)C3(C)C` [TXT, docetaxel] was tested, and the “survival rate of cell (%)” value ([1]; CTXT 0.5 μg/mL) was 90%, the “survival rate of cell (%)” value ([1]; CTXT 1.0 μg/mL) was 80% and the “survival rate of cell (%)” value ([1]; CTXT 2.0 μg/mL) was 50%. The “survival rate of cell (%)” value ([1]; CTXT 5.0 μg/mL) was 20%, the “survival rate of cell (%)” value ([1]; CTXT 10.0 μg/mL) was 20% and the “killing effect (in words)” value ([1]; MCF-7 cells) was “excellent killing effect”. For the same compound, the “survival rate of cell (%)” value ([2]; CTXT 0.5 μg/mL) was 91%, the “survival rate of cell (%)” value ([2]; CTXT 1.0 μg/mL) was 79% and the “survival rate of cell (%)” value ([2]; CTXT 2.0 μg/mL) was 55%. The “survival rate of cell (%)” value ([2]; CTXT 5.0 μg/mL) was 40%, the “survival rate of cell (%)” value ([2]; CTXT 10.0 μg/mL) was 30% and the “killing effect (in words)” value ([2]; HEC-1B-Y5 cells) was “excellent killing effect”.

Reference: US20160213788A1, “ACTIVE TARGETING ANTITUMOR DRUG AND PREPARATION METHOD THEREFOR” (NINGBO INSTITUTE OF MATERIALS TECHNOLOGY & ENGINEERING, …, priority 2013, published 2016)
